# pIC50: −log10 of the molar value.
# How the values were obtained:
# HBeAg = experiment: PHH natural infection assay, HBeAg (alphalisa); type: cell-based, HBV; conditions: Hepatitis B virus, Hepatocyte, 72 h, read-out: HBeAg IC50
# Experimental: (§1) Detailed procedures regarding primary human hepatocyte (PHH) HBV natural infection assay are described as below. One tube of frozen PHH (10 million cells) is thawed in 37° C. water bath and then transferred to 20 mL of PHH thawing medium (Sigma, InVitroGRO HT Medium, Cat. S03319) with gently mixing. The cells were then centrifuged at […] for 5 min, the supernatant was discarded and the tube was refilled with 25 mL of PHH plating medium (Sigma, InVitroGRO CP Medium, Cat. S03317). The tube was shaken very gently to re-suspend all cells, and then 50 μl of cells were transferred to each well 384-well collagen I coated plate with appropriate liquid handling equipment, e.g. Integra VIAFLO384 or Agilent Bravo. The cells were then cultured for 24 hours in a cell incubator. For HBV infection, after PHH attachment on the culture plate, the plating medium was removed and replenished with PHH culture medium containing HBV virus. The PHH culture medium was prepared with Dulbecco's Modified Eagle Medium (DMEM)/F12 (1:1 in volume ratio) containing 10% fetal bovine serum (Gibco, Cat. 10099141), 5 ng/mL human epidermal growth factor (Gibco, Cat.PHG031IL), 20 ng/mL dexamethasone (Sigma, Cat.D4902-100 mg), 250 ng/mL human recombinant insulin (Gibco, Cat.41400045) and 100 U/mL penicillin. HBV virus at 200 genome equivalent (GE) per cell with 4% PEG8000 (Sigma, Cat.P1458) containing culture medium were added to the PHH culture medium for infection. The cells were then cultured for 24 hours in cell incubator. Then the cell culture supernatant was removed. The HBV-infected PHH were cultured with sandwich culture method with PHH culture medium containing 1% DMSO and 0.25 mg/mL matrix gel for 72 hours. The supernatant was then refreshed with PHH culture medium containing different concentrations of testing compounds for two times with 72-hour interval. At the end of treatment, the supernatant was collected for viral markers measurements, including HBsAg, HBeAg, HBV DNA and cytotoxicity. HBsAg and HBeAg were detected using alphalisa method using their specific antibodies. For HBV DNA detection, HBV DNA Quantitative Fluorescence Diagnostic Kit (Sansure Biotech Inc.) was used following the manufacture's protocol. Cytotoxicity was determined using Cell Counting Kit-8 (CCK8, Dojindo Molecular Technologies, Inc.).
# (§2) The compounds of the present invention were tested for their capacity to inhibit HBsAg and HBeAg as described herein.
# [1] = Cytotoxicity in PHH natural infection assay (Cell Counting Kit-8); type: cell-based; conditions: HBV-infected primary human hepatocytes, CCK8
# Experimental: as §1
# HBsAg = experiment: PHH natural infection assay, HBsAg (alphalisa); type: cell-based, HBV; conditions: Hepatitis B virus, Hepatocyte, 72 h, read-out: HBsAg IC50
# Experimental: as §1, §2
SMILES,pIC50 (HBeAg),CC50 at 144 h [1] [µM],pIC50 (HBsAg)
"COCCNc1ccc2nn(-c3ccc(Cl)cc3)nc2c1 [Example 15, 2-(4-Chlorophenyl)-N-(2-methoxyethyl)benzotriazol-5-amine]",5.63,> 100,5.43
"Clc1ccc(-n2nc3ccc(Nc4nc(-c5ccccc5)cs4)cc3n2)cc1 [Example 63, N-[2-(4-chlorophenyl)benzotriazol-5-yl]-4-phenyl-thiazol-2-amine]",5.87,> 100,5.82
"CC(C)CS(=O)(=O)c1ccc(-n2nc3ccc(N)cc3n2)cc1 [Example 10, 2-(4-Isobutylsulfonylphenyl)benzotriazol-5-amine]",5.25,> 100,5.02
"O=C(Nc1ccc2nn(-c3ccc(Cl)cc3)nc2c1)C1CCCCO1 (stereo not drawn) [Example 46, N-[2-(4-chlorophenyl)benzotriazol-5-yl]tetrahydropyran-2-carboxamide]",5.94,> 100,5.57
"CNC(=O)CCNc1ccc2nn(-c3ccc(Cl)cc3)nc2c1 [Example 37, 3-[[2-(4-Chlorophenyl)benzotriazol-5-yl]amino]-N-methyl-propanamide]",5.06,> 100,5.33
"CC(C)C(=O)NC(=S)Nc1ccc2nn(-c3ccc(Cl)cc3)nc2c1 [Example 57, N-[[2-(4-chlorophenyl)benzotriazol-5-yl]carbamothioyl]-2-methyl-propanamide]",5.43,> 100,5.60
"COCCNc1ccc2nn(-c3cccc(Cl)c3)nc2c1 [Example 18, 2-(3-Chlorophenyl)-N-(2-methoxyethyl)benzotriazol-5-amine]",5.17,> 100,5.35
"CN(C)C(=S)Nc1ccc2nn(-c3ccc(Cl)cc3)nc2c1 [Example 61, 3-[2-(4-Chlorophenyl)benzotriazol-5-yl]-1,1-dimethyl-thiourea]",5.91,> 100,6.10
"CCN(C)c1ccc2nn(-c3ccc(Cl)cc3)nc2c1 [Example 36, 2-(4-Chlorophenyl)-N-ethyl-N-methyl-benzotriazol-5-amine]",5.35,> 100,5.39
"Nc1ccc2nn(-c3cccc(Cl)c3)nc2c1 [Example 1, 2-(3-Chlorophenyl)benzotriazol-5-amine]",5.74,> 100,5.92
"O=C(Nc1ccc2nn(-c3ccc(Cl)cc3)nc2c1)C1CCOCC1 [Example 45, N-[2-(4-chlorophenyl)benzotriazol-5-yl]tetrahydropyran-4-carboxamide]",5.70,> 100,5.47
"COCCCNc1ccc2nn(-c3ccc(F)cc3)nc2c1 [Example 22, 2-(4-Fluorophenyl)-N-(3-methoxypropyl)benzotriazol-5-amine]",5.19,> 100,5.49
"O=C(CC(F)(F)F)Nc1ccc2nn(-c3ccc(Cl)cc3)nc2c1 [Example 51, N-[2-(4-chlorophenyl)benzotriazol-5-yl]-3,3,3-trifluoro-propanamide]",5.78,> 100,5.39
"Nc1ccc2nn(-c3ccc(Cl)cc3)nc2c1 [Example 2, 2-(4-Chlorophenyl)benzotriazol-5-amine]",5.28,> 100,5.10
"Cc1csc(Nc2ccc3nn(-c4ccc(Cl)cc4)nc3c2)n1 [Example 64, N-[2-(4-chlorophenyl)benzotriazol-5-yl]-4-methyl-thiazol-2-amine]",5.52,> 100,5.85
"O=C(NC(=S)Nc1ccc2nn(-c3ccc(Cl)cc3)nc2c1)c1ccccc1 [Example 58, N-[[2-(4-chlorophenyl)benzotriazol-5-yl]carbamothioyl]benzamide]",5.90,> 100,5.93
"COc1cccc(-n2nc3ccc(N)cc3n2)c1 [Example 6, 2-(3-Methoxyphenyl)benzotriazol-5-amine]",5.39,> 100,5.61

SMILES,pIC50 (HBeAg),CC50 at 144 h [1] [µM],pIC50 (HBsAg)
"COCCS(=O)(=O)c1ccc(-n2nc3ccc(N)cc3n2)cc1 [Example 9, 2-[4-(2-Methoxyethylsulfonyl)phenyl]benzotriazol-5-amine]",5.10,> 100,5.39
"CS(=O)(=O)c1ccc(-n2nc3ccc(N)cc3n2)cc1 [Example 7, 2-(4-Methylsulfonylphenyl)benzotriazol-5-amine]",5.49,> 100,5.25
"O=C(CC(F)(F)F)Nc1ccc2nn(-c3ccc(F)cc3)nc2c1 [Example 44, 3,3,3-trifluoro-N-[2-(4-fluorophenyl)benzotriazol-5-yl]propanamide]",4.93,> 100,5.16
"FC(F)(F)CNc1ccc2nn(-c3ccc(Cl)cc3)nc2c1 [Example 28, 2-(4-Chlorophenyl)-N-(2,2,2-trifluoroethyl)benzotriazol-5-amine]",5.61,> 100,5.67
"O=C(Nc1ccc2nn(-c3ccc(Cl)cc3)nc2c1)C1CCCC1 [Example 49, N-[2-(4-chlorophenyl)benzotriazol-5-yl]cyclopentanecarboxamide]",5.89,> 100,5.55
"Cc1cc(N)cc2nn(-c3ccc(Cl)cc3)nc12 [Example 11, 2-(4-Chlorophenyl)-7-methyl-benzotriazol-5-amine]",5.41,> 100,5.58
"CC(Nc1ccc2nn(-c3ccc(Cl)cc3)nc2c1)C(F)(F)F (stereo not drawn) [Example 32, 2-(4-Chlorophenyl)-N-(2,2,2-trifluoro-1-methyl-ethyl)benzotriazol-5-amine]",4.97,> 100,5.04
"O=C(Nc1ccc2nn(-c3ccc(Cl)cc3)nc2c1)C1CCCO1 (stereo not drawn) [Example 50, N-[2-(4-chlorophenyl)benzotriazol-5-yl]tetrahydrofuran-2-carboxamide]",5.86,> 100,5.90
"Cc1cc2nn(-c3ccc(Cl)cc3)nc2cc1NC(=S)NC(=O)c1ccccc1 [Example 59, N-[[2-(4-chlorophenyl)-6-methyl-benzotriazol-5-yl]carbamothioyl]benzamide]",5.52,> 100,5.95
"c1ccc(-n2nc3ccc(NC4CCCC4)cc3n2)cc1 [Example 16, N-cyclopentyl-2-phenyl-benzotriazol-5-amine]",4.80,> 100,5.03
"Clc1ccc(-n2nc3ccc(NC4CCCC4)cc3n2)cc1 [Example 31, 2-(4-Chlorophenyl)-N-cyclopentyl-benzotriazol-5-amine]",4.93,> 100,5.05
"CCNc1ccc2nn(-c3ccc(Cl)cc3)nc2c1 [Example 13, 2-(4-Chlorophenyl)-N-ethyl-benzotriazol-5-amine]",5.80,> 100,5.89
"O=C(Nc1ccc2nn(-c3ccc(F)cc3)nc2c1)C1CCCCO1 (stereo not drawn) [Example 42, N-[2-(4-fluorophenyl)benzotriazol-5-yl]tetrahydropyran-2-carboxamide]",5.21,> 100,5.20
"Clc1ccc(-n2nc3ccc(NCC4CCOC4)cc3n2)cc1 (stereo not drawn) [Example 23, 2-(4-Chlorophenyl)-N-(tetrahydrofuran-3-ylmethyl)benzotriazol-5-amine]",5.12,> 100,5.31
"Clc1ccc(-n2nc3ccc(NCC4CCCC4)cc3n2)cc1 [Example 26, 2-(4-Chlorophenyl)-N-(cyclopentylmethyl)benzotriazol-5-amine]",5.51,> 100,5.06
"O=C(CCC(F)(F)F)Nc1ccc2nn(-c3ccc(Cl)cc3)nc2c1 [Example 52, N-[2-(4-chlorophenyl)benzotriazol-5-yl]-4,4,4-trifluoro-butanamide]",5.72,> 100,5.65
"CC(=O)NC(=S)Nc1ccc2nn(-c3ccc(Cl)cc3)nc2c1 [Example 55, N-[[2-(4-chlorophenyl)benzotriazol-5-yl]carbamothioyl]acetamide]",5.29,> 100,5.53
